Test results: US20190022039A1, “COMPOUND HAVING ENHANCING ACTIVITY FOR GLUCAGON-LIKE PEPTIDE-1 RECEPTOR ACTIONS” (AJINOMOTO CO., INC., priority 2016, published 2019)

Tests used:
human GLP-1R = target: T1, human GLP-1R (Homo sapiens, UniProt P43220); assay: GLP-1 receptor in vitro calcium assay (intracellular free calcium concentration change induced via GLP-1 receptor); format: cell-based; details: for EC50: PRG48 cells transfected with human GLP-1R, compound added with 250 pM GLP-1, Ca2+ response ΔF/F, read-out: Ca EC50 value; for GLP-1 receptor action enhancing activity (vs BETP): intensity compared to BETP, activity of BETP as 1
T1 construct: expressed in transfected cells; host or cells: PEAK RAPID-derived Gα15-trans48 LD stably expressing cells (PRG48), transiently transfected with Lipofectamine 2000
In short: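 PRG48 cells transiently transfected with human GLP-1R and loaded with calcium dye in HEPES buffer containing probenecid. Compound added together with 250 pM GLP-1; fluorescence (Ex480/Em540) recorded before and after addition. ΔF/F computed and EC50 fitted from it.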

[1] = system: isolated rat islets of Langerhans; assay: Glucose-stimulated insulin secretion in isolated rat islets of Langerhans; format: cell-based
Experimental: The islets of Langerhans were isolated from the pancreas of male Wistar rats at around 10 weeks of age, according to a conventional method and using collagenase and Ficoll-Conray solution (Cryobiology, 2006, 52:90-8), and used for the activity evaluation of the compound.
The isolated islets were precultured in glucose-free Krebs Ringer Bicarbonate-Hepes buffer (KRBH: 129 mM NaCl, 4.7 mM KCl, 5.0 mM NaHCO3, 1.2 mM MgSO4, […], 2.5 mM CaCl2, 10 mM HEPES, pH 7.4) under the conditions of 37° C., 5% CO2 for 30 min and seeded in each well of a 24 well plate by 5 islets. […] The culture supernatant was recovered from each well after culturing for 1 hr, and the concentration of insulin secreted in the supernatant was measured using a commercially available measurement kit (manufactured by Morinaga Institute of Biological Science, Inc.). The insulin secretion amounts under respective stimulation conditions were calculated as secretion amounts relative to the secretion amount at 8.3 mM glucose.

KKAy mice [2] = assay: Blood glucose increase suppressive effect in diabetes model mouse after whey protein and glucose load; format: in vivo; details: male KKAy mice, 3 mg/kg intraperitoneal
Experimental: 23-week-old male KKAy mice fasted overnight were randomly divided into 2 groups, and whey protein was orally administered to each mouse at 3 g/kg to induce endogenous GLP-1 secretion. At 30 min after whey protein administration, the compound of the present invention (compound 50) or administration medium (vehicle) was intraperitoneally administered to each mouse at 3 mg/kg, glucose was orally administered immediately thereafter at 2 g/kg, blood samples were collected from the tail vein over time, and the blood glucose level was measured.

KKAy mice [3] = assay: Food intake-suppressive effect in diabetes model mouse; format: in vivo; details: male KKAy mice fasted overnight, 3 mg/kg oral in simulated intestinal fluid, 4 hr after administration, vs simulated intestinal fluid group (FIG. 3)
Experimental: 11-week-old male KKAy mice were randomly divided into 2 groups. After fasting overnight, simulated intestinal fluid (containing 10 mM taurocholic acid, 2 mM lecithin, 55 mM maleic acid, 81.6 mM sodium hydroxide, 125 mM sodium chloride), or the compound of the present invention (compound 96) dissolved in the simulated intestinal fluid was orally administered (3 mg/kg), a commercially available feed (CRF-1, manufactured by Oriental Yeast Co., ltd.) was given and changes in the food intake was monitored.

T1 sequence (P43220 24-463): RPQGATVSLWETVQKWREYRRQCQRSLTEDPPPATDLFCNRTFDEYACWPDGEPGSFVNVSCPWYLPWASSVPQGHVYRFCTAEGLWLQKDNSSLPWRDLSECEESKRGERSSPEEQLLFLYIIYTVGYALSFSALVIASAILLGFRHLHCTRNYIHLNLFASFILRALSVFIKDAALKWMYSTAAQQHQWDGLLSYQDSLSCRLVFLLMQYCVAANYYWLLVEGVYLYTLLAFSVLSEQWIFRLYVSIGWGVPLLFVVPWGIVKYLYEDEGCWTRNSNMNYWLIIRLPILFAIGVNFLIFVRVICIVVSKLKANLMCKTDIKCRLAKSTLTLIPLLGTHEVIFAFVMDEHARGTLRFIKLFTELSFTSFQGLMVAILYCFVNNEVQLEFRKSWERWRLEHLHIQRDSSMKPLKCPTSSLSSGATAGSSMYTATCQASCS

| Compound | EC50 (human GLP-1R) [nM] | GLP-1 receptor action enhancing activity (vs BETP) (human GLP-1R) | insulin secretion ([1]; 30 μM compound 50 alone in buffer containing 8.3 mM glucose, 1 hr) | increase in insulin secretion amount as compared to 8.3 mM glucose alone ([1]; simultaneous addition of 30 μM compound 50 and 1 nM exendin-4, 8.3 mM glucose, 1 hr (FIG. 1)) | blood glucose at the time of peak (KKAy mice [2]; 30 min after whey protein 3 g/kg, glucose 2 g/kg oral, peak 30 min after glucose (FIG. 2A)) | blood glucose AUC value (KKAy mice [2]; 180 min after glucose administration, p<0.05 vs vehicle (FIG. 2B)) [mg·h/dL] | cumulative food consumption (KKAy mice [3]) |
| --- | --- | --- | --- | --- | --- | --- | --- |
| CCCCC(CC)CNC(=O)[C@H](CC1CCCCC1)NC(=O)Nc1ccc(NS(=O)(=O)c2ccc(C(C)(C)C)cc2)cc1 (stereo partly drawn) [Compound 50] | 6.8 | 3720 | did not affect insulin secretion | about 2 fold | suppression of blood glucose increase at the time of peak | 734.3 ± 65.9 |  |
| CCCCCCNC(=O)[C@@H](Cc1cccnc1)NC(=O)Nc1ccc(NS(=O)(=O)c2ccc(C(C)(C)C)cc2)cc1 [Compound 96] | 600 | 42 |  |  |  |  | significant suppression |
